Assay [1] deals with human pancreatic cancer cell line MiaPaCa2 (ATCC CRL-1420). Put plainly: Cell growth assay (CellTiterGlo, 72 hours). It counts as cell-based. Conditions: for IC50: MIA PaCa-2, MiaPaCa2 cells, 72 hours, read-out: IC50 MiaPaCa; for inhibition at 100 µM: MIA PaCa-2, at 100 μM; for inhibition at 100 µM / inhibition at 50 µM: read-out: Inhibition of MiaPaCa growth at indicated concentration; for inhibition at 50 µM: MIA PaCa-2, at 50 μM. An outline of the steps:
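MiaPaCa2 cells (10^3/well) seeded in supplemented DMEM overnight, then exposed in quadruplicate to compound at 100 down to 0.1 μM for 72 h at 37° C. Growth read by CellTiterGlo luminescence, medium-only background subtracted, normalised to untreated cells; IC50 = concentration reducing growth to 50%.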

Another assay deals with T1, MNK1 (Homo sapiens, UniProt Q9BUB5).
T1 construct: purchased Life Technologies or Carna Biosciences PV6023 or 02-145; host or cells: baculovirus infected insect cells
The assay can be described thus: MNK inhibition assay (Z-Lyte kinase assay, Ser/Thr 7 peptide). It counts as biochemical. The conditions noted are these: for IC50: recombinant GST-MNK1, 3 hours at 31° C. The essentials: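 Recombinant GST-MNK1 from baculovirus-infected insect cells, Z-Lyte Ser/Thr 7 peptide, enzyme set for ~30% phosphorylation in buffer-only wells; 3 hours at 31° C. Compounds at 50–10000 nM (potent ones down to 0.5 nM), at least duplicate. IC50 from % substrate phosphorylation versus buffer-only wells, fluorescence read-out.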

Setting [2] is: read-out: Inhibition of MNK1 activity at indicated concentration.

SMILES strings stand for the structures.

T1 sequence (Q9BUB5 whole entry): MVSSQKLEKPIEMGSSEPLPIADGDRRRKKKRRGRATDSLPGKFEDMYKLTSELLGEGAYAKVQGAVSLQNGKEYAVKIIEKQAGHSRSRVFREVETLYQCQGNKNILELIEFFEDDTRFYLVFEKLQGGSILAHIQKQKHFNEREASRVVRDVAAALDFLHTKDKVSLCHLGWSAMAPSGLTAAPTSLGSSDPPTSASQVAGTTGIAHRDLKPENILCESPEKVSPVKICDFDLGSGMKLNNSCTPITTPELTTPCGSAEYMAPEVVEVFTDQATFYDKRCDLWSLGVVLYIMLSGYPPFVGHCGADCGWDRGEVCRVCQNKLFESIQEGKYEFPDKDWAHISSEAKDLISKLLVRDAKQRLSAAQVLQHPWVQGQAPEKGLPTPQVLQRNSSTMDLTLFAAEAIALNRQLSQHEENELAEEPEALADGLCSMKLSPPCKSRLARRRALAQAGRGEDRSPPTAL

Usually IC50 stands for the concentration that inhibits the measured activity by half. With `Nc1ncc(-c2cccs2)c2cc(CN3CCC(N)CC3)cc(Cl)c12` [Example 287], the half-inhibitory concentration (IC50) in assay [1] turned out to be 4740 nM; at MNK1, 142 nM.

With `NCCCNCc1ccc2cncc(-c3ccc(O)cc3)c2c1` [Example 25], the IC50 in assay [1] is 14600 nM; on MNK1 it was 166 nM.

With `NC1CCN(Cc2ccc3cncc(-c4ccc5ccccc5n4)c3c2)CC1` [Example 176, 1-[[4-(2-Quinolyl)-6-isoquinolyl]methyl]piperidin-4-amine], the IC50 in assay [1] is 29000 nM; on MNK1 it was 3700 nM.

Consider `Nc1ncc(-c2ccc(Cl)cc2)c2cc(CN3CCC(N)CC3)cc(Cl)c12` [Example 284], for which the IC50 in assay [1] amounted to 4230 nM; on MNK1, 160 nM.

`NC1CCN(Cc2cc3c(-c4cc5ccccc5o4)cncc3cc2Cl)CC1` [Example 250]: the figures for the IC50 (in assay [1]; on MNK1) were 4940 nM and 64 nM, respectively.

Consider `COc1ccc2oc(-c3cncc4ccc(CN5CCC(N)CC5)cc34)cc2c1` [Example 175], for which the IC50 in assay [1] stood at 7720 nM; at MNK1, 1070 nM.

In the case of `N[C@H]1CC[C@H](Nc2ccc3cncc(-c4cc5ccccc5o4)c3n2)CC1` [Example 304, trans-N4-[8-(benzofuran-2-yl)-1,6-naphthyridin-2-yl]cyclohexane-1,4-diamine], the IC50 in assay [1] was 1960 nM; on MNK1, 10 nM.

Take `NC1CCN(Cc2cc3c(-c4cc5ccccc5o4)cncc3c(F)c2F)CC1` [Example 248]: the values for the half-inhibitory concentration (IC50) (in assay [1]; on MNK1) were 10000 nM and 147 nM, respectively.

As to `CN(C)CCOc1ccc2cncc(-c3cc4ccccc4o3)c2c1` [Example 95, 2-[[4-(Benzofuran-2-yl)-6-isoquinolyl]oxy]-N,N-dimethyl-ethanamine], the values for the IC50 (in assay [1]; at MNK1) were 8380 nM and 1730 nM, respectively.

With `COc1cc(CN2CCC(N)CC2)cc2c(-c3cc4ccccc4o3)cncc12` [Example 242, 1-[[4-(Benzofuran-2-yl)-8-methoxy-6-isoquinolyl]methyl]piperidin-4-amine], the IC50 is 2740 nM in assay [1] and 164 nM at MNK1.

On to `Nc1ncc2ccc(CN3CCC(N)CC3)cc2c1-c1cc2ccccc2o1` [Example 164, 6-[(4-Amino-1-piperidyl)methyl]-4-(benzofuran-2-yl)isoquinolin-3-amine], for which the figures for the IC50 (in assay [1]; on MNK1) were 6620 nM and 847 nM, respectively.

For `O=C(c1ccc2cncc(-c3cc4ccccc4o3)c2n1)N1CCNCC1` [Example 305], the figures for the IC50 (in assay [1]; on MNK1) were 28000 nM and 1300 nM, respectively.

For `c1ccc2oc(-c3cncc4ccc(NCc5ccncc5)cc34)cc2c1` [Example 147, 4-(Benzofuran-2-yl)-N-(4-pyridylmethyl)isoquinolin-6-amine], the half-inhibitory concentration (IC50) in assay [1] came to 7140 nM; at MNK1 it was 92 nM.

As for `Nc1ncc2ccc(CN3CCNCC3)cc2c1-c1cc2ccccc2o1` [Example 260, 4-(Benzofuran-2-yl)-6-(piperazin-1-ylmethyl)isoquinolin-3-amine], the IC50 in assay [1] amounted to 17500 nM; on MNK1, 1590 nM.

Turning to `Nc1ncc(-c2cc3ccccc3o2)c2cc(CN3CCNCC3)ccc12` [Example 223], the IC50 in assay [1] turned out to be 3940 nM; at MNK1, 1140 nM.

Consider `O=[N+]([O-])c1cnccc1NCc1ccc2cncc(-c3cc4ccccc4o3)c2c1` [Example 75, N-[[4-(Benzofuran-2-yl)-6-isoquinolyl]methyl]-3-nitro-pyridin-4-amine], for which the results for the IC50 (in assay [1]; on MNK1) were 18000 nM and 2130 nM, respectively.

With `Nc1ncc(-c2ccco2)c2cc(CN3CCC(N)CC3)ccc12` [Example 289], the values for the IC50 (in assay [1]; on MNK1) were 10300 nM and 418 nM, respectively.

Consider `Nc1cc(-c2cncc3ccc(CN4CCC(N)CC4)cc23)ccn1` [Example 16], for which the inhibition at 100 µM in assay [1] was determined as 67%. The IC50 on MNK1 was 1910 nM.

For `NC1CCN(Cc2cc(Cl)c3cncc(-c4cc5ccccc5o4)c3c2)CC1` [Example 236, 1-[[4-(Benzofuran-2-yl)-8-chloro-6-isoquinolyl]methyl]piperidin-4-amine], the IC50 in assay [1] was 4400 nM; at MNK1, 579 nM.

For the compound `COC(=O)c1ccc(-c2cncc3ccc(CN4CCC(N)CC4)cc23)cc1` [Example 11], the IC50 in assay [1] is 10100 nM. At MNK1 (setting [2]), the inhibition at 1 µM amounted to 33%.

Turning to `COc1cc(O[C@H]2CC[C@H](N)CC2)cc2c(-c3ccccc3)cncc12` [Example 316], the values for the IC50 (in assay [1]; at MNK1) were 5570 nM and 55 nM, respectively.

On to `Nc1cc[n+](Cc2ccc3cncc(-c4cc5ccccc5o4)c3c2)nc1` [Example 127], for which the results for the IC50 (in assay [1]; on MNK1) were 8480 nM and 21 nM, respectively.

For the compound `Nc1ncc(-c2ccccc2)c2cc(CN3CCC(N)CC3)c(Cl)cc12` [Example 264, 6-[(4-Amino-1-piperidyl)methyl]-7-chloro-4-phenyl-isoquinolin-1-amine], the IC50 in assay [1] came out at 5930 nM; on MNK1, 194 nM.

On to `NC1CCC(NCc2ccc3cncc(-c4ccc(O)cc4)c3c2)C1` (stereo not shown) [Example 42, 4-[6-[[(3-Aminocyclopentyl)amino]methyl]-4-isoquinolyl]phenol], for which the inhibition at 50 µM in assay [1] amounted to 44%. The IC50 at MNK1 was found to be 496 nM.

Take `CN(C)CCNc1ccc2cncc(-c3cc4ccccc4o3)c2c1` [Example 99, N-[4-(Benzofuran-2-yl)-6-isoquinolyl]-N′,N′-dimethyl-ethane-1,2-diamine]: in assay [1], the IC50 came to 4390 nM. Further, the inhibition at 1 µM on MNK1 (setting [2]) turned out to be 60%.

In the case of `NC1CCN(Cc2ccc3cncc(-c4cc5ccncc5o4)c3c2)CC1` [Example 274], the IC50 in assay [1] came to 3980 nM; on MNK1 it was 624 nM.

`NCc1ccc(NCc2ccc3cncc(-c4cc5ccccc5o4)c3c2)cc1` [Example 52]: the figures for the IC50 (in assay [1]; at MNK1) were 14100 nM and 163 nM, respectively.

Regarding `NC1CCN(Cc2ccc3cncc(-c4ccc5c(c4)OCO5)c3c2)CC1` [Example 199], the IC50 in assay [1] is 8670 nM; at MNK1 it was 212 nM.

In the case of `Nc1ccc(Nc2ccc3cncc(-c4cc5ccccc5o4)c3c2)cn1` [Example 138, N5-[4-(Benzofuran-2-yl)-6-isoquinolyl]pyridine-2,5-diamine], the IC50 came out at 12100 nM in assay [1] and 1600 nM on MNK1.

`Nc1ncc(-c2ccccc2)c2cc(N[C@H]3CC[C@H](N)CC3)cc(Cl)c12` [Example 312, Trans-N6-(4-aminocyclohexyl)-8-chloro-4-phenyl-isoquinoline-1,6-diamine]: the IC50 in assay [1] was found to be 1300 nM; at MNK1, 171 nM.

On to `COc1c(CN2CCC(N)CC2)cc2c(-c3cc4ccccc4o3)cncc2c1OC` [Example 279, 1-[[4-(Benzofuran-2-yl)-7,8-dimethoxy-6-isoquinolyl]methyl]piperidin-4-amine], for which the IC50 in assay [1] worked out at 5630 nM; on MNK1 it was 116 nM.

For `Nc1ncc(-c2ccc(O)cc2)c2cc(CN3CCNCC3)ccc12` [Example 93], the inhibition at 50 µM in assay [1] amounted to 27%. On MNK1, the IC50 was 197 nM.

On to `NC1CCN(Cc2ccc3nncc(-c4ccccc4)c3c2)CC1` [Example 84], for which the inhibition at 100 µM in assay [1] was determined as 33%. The IC50 on MNK1 is 3730 nM.

`NC1CCN(Cc2cc([N+](=O)[O-])c3cncc(-c4cc5ccccc5o4)c3c2)CC1` [Example 252, 1-[[4-(Benzofuran-2-yl)-8-nitro-6-isoquinolyl]methyl]piperidin-4-amine]: the results for the half-maximal inhibitory concentration (IC50) (in assay [1]; on MNK1) were 20500 nM and 308 nM, respectively.

In the case of `COc1cc(CN2CCC(N)CC2)cc2c(-c3ccccc3)cnc(N)c12` [Example 259], the IC50 in assay [1] came out at 1300 nM; at MNK1, 66 nM.

`N[C@H]1CC[C@@H](C(=O)Nc2ccc3cncc(-c4cc5ccccc5o4)c3c2)CC1` [Example 157]: the IC50 in assay [1] was determined as 7880 nM; on MNK1 it was 50 nM.

On to `Nc1cnccc1NCc1ccc2cncc(-c3cc4ccccc4o3)c2c1` [Example 76, N4-[[4-(Benzofuran-2-yl)-6-isoquinolyl]methyl]pyridine-3,4-diamine], for which the results for the IC50 (in assay [1]; on MNK1) were 4750 nM and 5.9 nM, respectively.

In the case of `Nc1ccc[n+](Cc2ccc3cncc(-c4cc5ccccc5o4)c3c2)c1` [Example 56], the inhibition at 100 µM in assay [1] worked out at 85%. Also, the IC50 at MNK1 came to 143 nM.

Consider `Cc1cc(N)cc[n+]1Cc1ccc2cncc(-c3cc4ccccc4o3)c2c1` [Example 125, 1-[[4-(Benzofuran-2-yl)-6-isoquinolyl]methyl]-2-methyl-pyridin-1-ium-4-amine], for which the values for the IC50 (in assay [1]; at MNK1) were 4040 nM and 52 nM, respectively.

Regarding `Nc1ncc(-c2cc3ccccc3o2)c2cc(CNc3ccncc3)ccc12` [Example 151, 4-(Benzofuran-2-yl)-6-[(4-pyridylamino)methyl]isoquinolin-1-amine], the IC50 in assay [1] is 2510 nM; at MNK1, 11 nM.

`Cc1ccc(-c2cncc3ccc(CNc4ccnc5ccccc45)cc23)o1` [Example 209]: the IC50 in assay [1] amounted to 7500 nM; on MNK1, 56 nM.

For the compound `N[C@H]1CC[C@@H](CNc2ccc3cncc(-c4cc5ccccc5o4)c3c2)CC1` [Example 231], in assay [1], the IC50 stood at 3240 nM. For the same compound, at MNK1 (at 10 μM, read-out: Inhibition of MNK1 activity at indicated concentration), the inhibition at 10 µM is 54%.

For the compound `Cn1nccc1NCc1ccc2cncc(-c3cc4ccccc4o3)c2c1` [Example 101], the IC50 was 19000 nM in assay [1] and 180 nM at MNK1.

As to `NC1CCC(NCc2ccc3cncc(-c4ccc(O)cc4)c3c2)CC1` (stereo not shown) [Example 37], in assay [1], the inhibition at 50 µM is 57%. In addition, the IC50 on MNK1 worked out at 336 nM.

(Values after patent US20200031811A1, “SUBSTITUTED MONO- AND POLYAZANAPHTHALENE DERIVATIVES AND THEIR USE” (Basilea Pharmaceutica International AG, priority 2015, published 2020).)
